From paper PMC9832345 (RSC Advances, 2023)

System: third instar larvae of Spodoptera litura
Experiment: Leaf-dip larvicidal assay
Type: in vivo
Conditions: for Eating area (%): 96 h

SMILES | Eating area (%) (6.25 ppm) | Eating area (%) (12.5 ppm) | eating area (concentration not given)
CNC(=O)c1cc(Cl)cc(C)c1NC(=O)c1cc(Br)nn1-c1ncccc1Cl [Chlorantraniliprole, chlorantraniliprole] | 0–5% | 0–5% | 0–5%
Cc1cc(Cl)cc(S(C)(=O)=O)c1NC(=O)c1cc(Br)nn1-c1ncccc1Cl [Compound 8] | 0–5% | 0–5% | –
